# According to US20050004105A1, “Treatment for a attention-deficit hyperactivity disorder” (priority 2003, published 2005):
# Structures can show the parent of a compound that is named as a salt. Where two headings read alike, the source gives them in different places.
# Experiments:
# 5-HT1B/1D receptor [1] = conditions: [125I]iodocyanopindolol 0.15 nM in striatum; exemplary protocol; read-out: Ki of reference compound, 5-HT1B/1D binding assay; cited from earlier work
# 5-HT1A receptors [2] = target: T1, 5-HT1A receptors (Homo sapiens, UniProt P08908); conditions: proportion of maximal inhibition of forskolin-stimulated cAMP relative to 5-HT; Koek et al., 1998; cited from earlier work
# T1 sequence (P08908 1-422): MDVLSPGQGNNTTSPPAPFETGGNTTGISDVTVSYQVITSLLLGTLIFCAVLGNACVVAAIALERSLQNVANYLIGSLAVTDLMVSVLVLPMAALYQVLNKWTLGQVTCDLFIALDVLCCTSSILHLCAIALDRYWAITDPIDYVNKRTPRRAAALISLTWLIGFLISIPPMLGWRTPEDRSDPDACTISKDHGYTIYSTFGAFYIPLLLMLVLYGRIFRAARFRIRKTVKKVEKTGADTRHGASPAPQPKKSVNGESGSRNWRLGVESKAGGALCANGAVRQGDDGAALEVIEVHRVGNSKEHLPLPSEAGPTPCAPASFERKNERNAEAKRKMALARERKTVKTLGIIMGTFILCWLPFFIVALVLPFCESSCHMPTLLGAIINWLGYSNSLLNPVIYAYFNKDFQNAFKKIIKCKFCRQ
# [3] = test system: other 5-HT receptor subtypes or other neurotransmitter receptors; conditions: reported; cited from earlier work
# α1 receptor = conditions: rat forebrain membranes, [3H]7-MeOxy-prazosin; exemplary protocol; read-out: Ki of reference compound, α1 binding assay; cited from earlier work
# 5-HT1B/1D receptor [4] = conditions: [3H]5-CT […] or 2 nM in cortex; exemplary protocol; read-out: Ki of reference compound, 5-HT1B/1D binding assay; cited from earlier work
# 5-HT1A receptors [5] = target: T1, 5-HT1A receptors; experiment: 5-HT1A receptor affinity (Schipper et al., 1991); type: binding
# dopamine D2 receptors [6] = target: T2, dopamine D2 receptors (Homo sapiens, UniProt P14416); experiment: Dopamine D2 receptor affinity (Schipper et al., 1991); type: binding; conditions: converted from Ki of Schipper et al., read-out: pKi for D2 receptors (converted)
# T2 sequence (P14416 whole entry): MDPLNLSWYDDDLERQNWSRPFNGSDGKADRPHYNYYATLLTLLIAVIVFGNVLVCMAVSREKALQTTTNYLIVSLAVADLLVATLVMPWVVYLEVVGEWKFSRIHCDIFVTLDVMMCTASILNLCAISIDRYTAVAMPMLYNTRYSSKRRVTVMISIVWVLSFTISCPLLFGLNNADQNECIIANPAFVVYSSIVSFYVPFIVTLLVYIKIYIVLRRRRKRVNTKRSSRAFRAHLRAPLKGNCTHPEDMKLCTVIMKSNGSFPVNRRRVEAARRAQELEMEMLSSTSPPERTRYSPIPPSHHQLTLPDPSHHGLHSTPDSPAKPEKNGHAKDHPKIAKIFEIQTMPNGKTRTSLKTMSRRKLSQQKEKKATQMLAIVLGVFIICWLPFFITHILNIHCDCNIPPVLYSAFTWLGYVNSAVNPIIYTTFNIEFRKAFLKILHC
# 5-HT1A receptors [7] = target: T1, 5-HT1A receptors; experiment: 5-HT1A receptor affinity (Koek et al., 1998); type: binding; conditions: from pKi values of Koek et al.
# mice (C57BL/6J; C3H) = experiment: Peak procedure (peak interval procedure, PIP); type: in vivo; conditions: C3H mice, vs vehicle
# Experimental: The peak procedure is a behavioral model designed to assess an animal's ability to learn an appropriate time period in which to perform a task and a time period in which the animal will be rewarded if the task is performed. The model provides information concerning excitatory and inhibitory components of behavior, as subjects must respond to perform a task when appropriate and stop responding in an “empty trial” when time for reward has elapsed and the reward has not been delivered. The task is sensitive to conditions where there is a failure in inhibitory mechanisms, such as seems to be the case for ADHD (Pliszka et al., Biol. Psychiatry, 48:238-46, 2000).
# In the peak procedure, mice are trained to work for food that is delivered at the same time in each trial, but withdrawn in some unreinforced trials. Typically, the response rate increases up to a maximum around the reinforcement time, and then decreases to a low toward the end of the trial. The shape of the response rate indicates whether the animal is sensitive to the time of reinforcement. To be able to perform well in this model, the animals need to be able to learn several tasks. First, the animal must make an association between a response (lever pressing, nose poking or key pecking) and the delivery of reward. Second, the animal must be able to perceive and remember time. Third, the animal must act on its remembered time by starting and then stopping or inhibiting the response. Fourth, the animal must be able to compare the elapsed time in the trials with its remembered time to reinforcement. In each trial the time clock is reset, and the animal must reset its internal “counter,” i.e., at the beginning of each trial animals should start “timing” the trial time from zero. The ability to perform this task depends on the animal's working memory. Starting the internal clock at the beginning of the trial requires that the animal pays attention to the trial start time, which could be in the form of a visual signal, or as reported herein, the introduction of a lever into the experimental chamber. […] Accuracy is measured by looking at the shape of the response function; therefore, if the response function is sharper and centered on the reinforcement time it supports a conclusion that attentional processes have been heightened.
# All mice were food deprived to a target weight of 85-90% of their free-feeding weight before training began. Mice were fed approximately 10% of their body weight until they reached their target weight. On average, 1 week of food deprivation was sufficient to reach the target weight. During this time, all subjects were fed Bioserve 500 mg precision dustless pellets as their daily ration. They were exposed to Carnation™ evaporated milk in the home cage to avoid a possible neophobic reaction to the reinforcement. Subjects were given 1-week “vacations” every 4 to 6 weeks at which time they were allowed free access to food and a new free-feeding body weight baseline was recorded. Water was continuously available in the cage.
# Once deprived, animals were trained to lever-press in an operant chamber using ultrasensitive levers. Sixteen mouse operant chambers (Med Associates, Georgia, Vt.) were configured identically with two retractable ultra-sensitive levers, stimulus lights, and a dipper for delivery of condensed milk. A house light was placed on the opposite wall from the levers. Each chamber was placed in isolation cubicle. A fan provided white masking noise and adequate air.
# Training and testing consisted of 1-h daily sessions. Subjects started on a concurrent fixed ratio 1-fixed time 1 min (FR 1-FT 1) schedule of reinforcement in which the house light served as the discriminative stimulus. Food was delivered every 1 min but the delivery was immediate if the animal made a response. […] After no more than 1 week on this schedule, mice began training with a fixed-interval (FI) 10 s schedule in which all trials were separated by a 20 s, intertrial interval. […]
# [8] = test system: coloboma mutant (Cm) mice; experiment: Open-field locomotor activity, coloboma mutant mice; type: in vivo; conditions: Cm mutant mice
# From the text: (§1) Heterozygote coloboma mice were originally purchased from The Jackson Laboratory (Bar Harbor, Me.) and were bred and maintained in our colony. In the current study, mutant mice and wild-type littermates, all aged 8 to 10 weeks, were used. Animals were divided into 4 groups: mutant/drug-treatment, mutant/vehicle-control, wild-type/drug-treatment, wild-type/vehicle-control (n=4-13 per group). Age and gender were balanced among groups. All animals were housed as littermates (2-4 mice per cage) and were maintained on ad libitum food and water with a 12 hr light/dark cycle.
# (§2) The Open-field (OF) test was performed under normal lighting conditions (400 lux). Mice (Cm/+, WT) were brought into the experimental room and allowed at least 1 hr of acclimation. […] Each mouse was then placed into an OF arena (27×27×20 cm) with an infrared beam array system (Med Associates, St. Albans, Vt.) that automatically monitored the animal's activity. Four animals of matching genotype and treatment were tested at one time. The test session lasted 40 min and animals were returned to the home cage at the end of the session. Test measures included locomotion (distance traveled in cm) and number of center entries (zone crossings).
# wild-type mice = experiment: Open-field locomotor activity, wild-type mice; type: in vivo; conditions: 0.3 mg/kg i.p.
# From the text: as §1, §2
# 5-HT1A receptors [9] = target: T1, 5-HT1A receptors; conditions: Schipper et al., 1991; cited from earlier work
# α1 adrenergic receptors = conditions: Schipper et al., 1991; cited from earlier work
# 5-HT1D receptors = conditions: Schipper et al., 1991; cited from earlier work
# dopamine D2 receptors [10] = target: T2, dopamine D2 receptors; conditions: Schipper et al., 1991; cited from earlier work
# 5-HT1B receptors = conditions: Schipper et al., 1991; Boddeke et al., 1992; cited from earlier work
# 5-HT1A receptors [11] = target: T1, 5-HT1A receptors; conditions: Koek et al., 1998; cited from earlier work
# D2 receptors = D2 receptors (Homo sapiens, UniProt P14416); conditions: Koek et al., 1998; cited from earlier work
# D2 receptors, sequence (P14416 whole entry): as above
# rats = rats trained to discriminate flesinoxan (0.5 mg/kg i.p.) from saline; cited from earlier work
compound,measurement,setting,value
NCCc1c[nH]c2ccc(O)cc12 [5-HT],Ki,5-HT1B/1D receptor [1],~0.0138 µM
"Clc1cnn(CCCCN2CCN(c3ncccn3)CC2)c1 [lesopitron, 2-[4-[4-(4-chloro-1H-pyrazol-1-yl)-butyl]-1-piperazinyl]pyrimidine]",intrinsic activity at the 5-HT1A receptor,5-HT1A receptors [2],0.70
same,affinity for other 5-HT receptor subtypes or other neurotransmitter receptors,[3],virtually no affinity
Cc1ccc(N(CC2=NCCN2)c2cccc(O)c2)cc1 [phentolamine mesylate],Ki,α1 receptor,~0.0054 µM
"NCCc1c[nH]c2ccc(C(N)=O)cc12 [5-CT, 5-carboxyamidotryptamine]",Ki,5-HT1B/1D receptor [4],0.0007 to 0.0011 µM
"Cl.O=C(NCCN1CCN(c2cccc3c2OCC(CO)O3)CC1)c1ccc(F)cc1 (single isomer, unassigned; (+)) [flesinoxan, (+)(4-fluoro-N-[2-[4-[2-(hydroxymethyl)-1,4-benzodioxane-5-yl] 1-piperazinyl]ethyl]benzamide) HCl]",ΔpKi for 5-HT1A and D2 receptors,5-HT1A receptors [5]; based on Ki values of Schipper et al.,about 1.92
same,Ki,5-HT1A receptors [5]; converted from Ki of Schipper et al.,0.0017 µM
same,Ki,dopamine D2 receptors [6],0.141 µM
same,ΔpKi for 5-HT1A and D2 receptors,5-HT1A receptors [7],1.86
same,effect on response curve in PIP 30 s,mice (C57BL/6J; C3H); 0.03 mg/kg,the peaks of the response curve is higher and the curves are sharper than vehicle
same,effect on response curve in PIP 45 s,mice (C57BL/6J; C3H); 0.03 mg/kg,evident but less robust
same,effect on performance curves in PIP 30 s and PIP 45 s,mice (C57BL/6J; C3H); 0.1 mg/kg,more comparable to saline curve
same,reduction in locomotor activity compared to vehicle-treated Cm mutants,[8]; 0.3 mg/kg i.p.,more than 75%
same,total ambulatory distance,"[8]; 0.3 mg/kg i.p. 30 min before 40 min open-field session, vehicle 6112±1621",1462±411 centimeters
same,frequency of zone crossings,"[8]; 0.3 mg/kg i.p., overall effect not statistically significant (p=0.0683)",decreased the frequency of zone crossings in Cm mutants to within the range of saline-treated wild-type mice
same,locomotion (distance traveled or zones crossed),wild-type mice,only marginally affected locomotion
same,Ki,5-HT1A receptors [9],0.0017 µM
same,Ki,α1 adrenergic receptors,0.38 µM
same,Ki,5-HT1D receptors,0.16 µM
same,Ki,dopamine D2 receptors [10],0.14 µM
same,Ki,5-HT1B receptors,0.81 µM
same,pKi for 5-HT1A receptors,5-HT1A receptors [11],8.91
same,pKi for D2 receptors,D2 receptors,7.05
same,intrinsic activity at the 5-HT1A receptor,5-HT1A receptors [2],0.93
same,"generalization to stimuli of α1 adrenoceptor antagonist, α2 adrenoceptor agonist, dopamine receptor agonist or antagonists",rats,did not generalize
